Data published in PMC8333425, “Discovery of a dual Ras and ARF6 inhibitor from a GPCR endocytosis screen” (Nature Communications, 2021).

Legend:
Test in all cases: KINOMEscan kinase binding assay
[1] = biological target: T1, 384 kinases from the human genome (Homo sapiens, UniProt Q9NRP7); details: kinase STK36 (Entrez STK36)
T1 construct: purchased Eurofin/DiscoverX
How it was run: (§1)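 A panel of 384 human kinases was profiled by KINOMEscan binding in the presence of 10 µM compound. Kinase–ligand binding was given as percent of DMSO control, averaged from duplicates in a single run, with an S(10) selectivity score.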

[2] = biological target: T2, 384 kinases from the human genome (Homo sapiens, UniProt O43353); details: kinase RIPK2 (Entrez RIPK2)
T2 construct: purchased Eurofin/DiscoverX
How it was run: as §1

[3] = biological target: T3, 384 kinases from the human genome (Homo sapiens, UniProt P54646); details: kinase AMPK-alpha2 (Entrez PRKAA2)
T3 construct: purchased Eurofin/DiscoverX
How it was run: as §1

[4] = biological target: T4, 384 kinases from the human genome (Homo sapiens, UniProt P51956); details: kinase NEK3 (Entrez NEK3)
T4 construct: purchased Eurofin/DiscoverX
How it was run: as §1

[5] = biological target: T5, 384 kinases from the human genome (Homo sapiens, UniProt Q13523); details: kinase PRP4 (Entrez PRPF4B)
T5 construct: purchased Eurofin/DiscoverX
How it was run: as §1

[6] = biological target: T6, 384 kinases from the human genome (Homo sapiens, UniProt Q9BX84); details: kinase TRPM6 (Entrez TRPM6)
T6 construct: purchased Eurofin/DiscoverX
How it was run: as §1

[7] = biological target: T7, 384 kinases from the human genome (Homo sapiens, UniProt P48736); details: kinase PIK3CG (Entrez PIK3CG)
T7 construct: purchased Eurofin/DiscoverX
How it was run: as §1

[8] = biological target: T8, 384 kinases from the human genome (Homo sapiens, UniProt P04629); details: kinase TRKA (Entrez NTRK1)
T8 construct: purchased Eurofin/DiscoverX
How it was run: as §1

[9] = biological target: T9, 384 kinases from the human genome (Homo sapiens, UniProt Q12851); details: kinase MAP4K2 (Entrez MAP4K2)
T9 construct: purchased Eurofin/DiscoverX
How it was run: as §1

[10] = biological target: T10, 384 kinases from the human genome (Homo sapiens, UniProt P54760); details: kinase EPHB4 (Entrez EPHB4)
T10 construct: purchased Eurofin/DiscoverX
How it was run: as §1

[11] = biological target: T11, 384 kinases from the human genome (Homo sapiens, UniProt O14965); details: kinase AURKA (Entrez AURKA)
T11 construct: purchased Eurofin/DiscoverX
How it was run: as §1

[12] = biological target: T12, 384 kinases from the human genome (Homo sapiens, UniProt P41240); details: kinase CSK (Entrez CSK)
T12 construct: purchased Eurofin/DiscoverX
How it was run: as §1

[13] = biological target: T13, 384 kinases from the human genome (Homo sapiens, UniProt Q13873); details: kinase BMPR2 (Entrez BMPR2)
T13 construct: purchased Eurofin/DiscoverX
How it was run: as §1

[14] = biological target: T14, 384 kinases from the human genome (Homo sapiens, UniProt P15056)
T14 construct: purchased Eurofin/DiscoverX
How it was run: as §1

[15] = biological target: T15, 384 kinases from the human genome (Homo sapiens, UniProt Q8NEV4); details: kinase MYO3A (Entrez MYO3A)
T15 construct: purchased Eurofin/DiscoverX
How it was run: as §1

[16] = biological target: T16, 384 kinases from the human genome (Homo sapiens, UniProt P29317); details: kinase EPHA2 (Entrez EPHA2)
T16 construct: purchased Eurofin/DiscoverX
How it was run: as §1

[17] = biological target: T17, 384 kinases from the human genome (Homo sapiens, UniProt Q96D53); details: kinase ADCK4 (Entrez ADCK4)
T17 construct: purchased Eurofin/DiscoverX
How it was run: as §1

[18] = biological target: T18, 384 kinases from the human genome (Homo sapiens, UniProt Q9Y616); details: kinase IRAK3 (Entrez IRAK3)
T18 construct: purchased Eurofin/DiscoverX
How it was run: as §1

[19] = biological target: T19, 384 kinases from the human genome (Homo sapiens, UniProt P48729); details: kinase CSNK1A1 (Entrez CSNK1A1)
T19 construct: purchased Eurofin/DiscoverX
How it was run: as §1

[20] = biological target: T20, 384 kinases from the human genome (Homo sapiens, UniProt P51957); details: kinase NEK4 (Entrez NEK4)
T20 construct: purchased Eurofin/DiscoverX
How it was run: as §1

[21] = biological target: T21, 384 kinases from the human genome (Homo sapiens, UniProt Q92630); details: kinase DYRK2 (Entrez DYRK2)
T21 construct: purchased Eurofin/DiscoverX
How it was run: as §1

[22] = biological target: T22, 384 kinases from the human genome (Homo sapiens, UniProt Q9NYL2); details: kinase ZAK (Entrez ZAK)
T22 construct: purchased Eurofin/DiscoverX
How it was run: as §1

[23] = biological target: T23, 384 kinases from the human genome (Homo sapiens, UniProt Q2M2I8)
T23 construct: purchased Eurofin/DiscoverX
How it was run: as §1

[24] = biological target: T24, 384 kinases from the human genome (Homo sapiens, UniProt P07947); details: kinase YES (Entrez YES1)
T24 construct: purchased Eurofin/DiscoverX
How it was run: as §1

[25] = biological target: T25, 384 kinases from the human genome (Homo sapiens, UniProt Q8TDR2); details: kinase STK35 (Entrez STK35)
T25 construct: purchased Eurofin/DiscoverX
How it was run: as §1

[26] = biological target: T26, 384 kinases from the human genome (Homo sapiens, UniProt Q16816); details: kinase PHKG1 (Entrez PHKG1)
T26 construct: purchased Eurofin/DiscoverX
How it was run: as §1

T23 sequence (Q2M2I8 whole entry): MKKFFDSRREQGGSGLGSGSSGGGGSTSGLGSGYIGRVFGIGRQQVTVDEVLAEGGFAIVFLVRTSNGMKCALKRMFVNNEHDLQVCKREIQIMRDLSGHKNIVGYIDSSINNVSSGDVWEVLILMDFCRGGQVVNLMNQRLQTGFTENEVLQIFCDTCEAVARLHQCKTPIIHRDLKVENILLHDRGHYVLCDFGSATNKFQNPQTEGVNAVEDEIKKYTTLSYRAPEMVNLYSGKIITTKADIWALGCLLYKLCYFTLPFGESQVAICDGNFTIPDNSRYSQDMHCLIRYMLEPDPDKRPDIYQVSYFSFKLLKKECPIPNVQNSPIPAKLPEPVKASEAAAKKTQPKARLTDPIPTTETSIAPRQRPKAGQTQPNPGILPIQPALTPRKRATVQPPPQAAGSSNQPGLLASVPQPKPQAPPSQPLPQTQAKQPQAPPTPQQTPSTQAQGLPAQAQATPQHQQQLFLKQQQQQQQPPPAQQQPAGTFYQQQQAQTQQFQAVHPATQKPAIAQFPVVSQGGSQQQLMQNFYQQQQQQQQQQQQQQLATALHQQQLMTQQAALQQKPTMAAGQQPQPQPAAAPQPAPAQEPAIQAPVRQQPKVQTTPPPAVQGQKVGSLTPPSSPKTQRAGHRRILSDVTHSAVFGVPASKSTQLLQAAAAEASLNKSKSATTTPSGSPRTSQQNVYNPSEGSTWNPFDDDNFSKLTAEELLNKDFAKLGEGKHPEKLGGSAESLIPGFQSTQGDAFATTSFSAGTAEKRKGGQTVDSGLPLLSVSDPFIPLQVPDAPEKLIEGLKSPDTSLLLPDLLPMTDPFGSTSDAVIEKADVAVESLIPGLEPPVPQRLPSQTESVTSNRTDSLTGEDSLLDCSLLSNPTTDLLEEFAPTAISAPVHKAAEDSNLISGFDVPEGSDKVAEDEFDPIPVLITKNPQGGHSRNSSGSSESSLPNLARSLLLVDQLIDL
T14 sequence (P15056 whole entry): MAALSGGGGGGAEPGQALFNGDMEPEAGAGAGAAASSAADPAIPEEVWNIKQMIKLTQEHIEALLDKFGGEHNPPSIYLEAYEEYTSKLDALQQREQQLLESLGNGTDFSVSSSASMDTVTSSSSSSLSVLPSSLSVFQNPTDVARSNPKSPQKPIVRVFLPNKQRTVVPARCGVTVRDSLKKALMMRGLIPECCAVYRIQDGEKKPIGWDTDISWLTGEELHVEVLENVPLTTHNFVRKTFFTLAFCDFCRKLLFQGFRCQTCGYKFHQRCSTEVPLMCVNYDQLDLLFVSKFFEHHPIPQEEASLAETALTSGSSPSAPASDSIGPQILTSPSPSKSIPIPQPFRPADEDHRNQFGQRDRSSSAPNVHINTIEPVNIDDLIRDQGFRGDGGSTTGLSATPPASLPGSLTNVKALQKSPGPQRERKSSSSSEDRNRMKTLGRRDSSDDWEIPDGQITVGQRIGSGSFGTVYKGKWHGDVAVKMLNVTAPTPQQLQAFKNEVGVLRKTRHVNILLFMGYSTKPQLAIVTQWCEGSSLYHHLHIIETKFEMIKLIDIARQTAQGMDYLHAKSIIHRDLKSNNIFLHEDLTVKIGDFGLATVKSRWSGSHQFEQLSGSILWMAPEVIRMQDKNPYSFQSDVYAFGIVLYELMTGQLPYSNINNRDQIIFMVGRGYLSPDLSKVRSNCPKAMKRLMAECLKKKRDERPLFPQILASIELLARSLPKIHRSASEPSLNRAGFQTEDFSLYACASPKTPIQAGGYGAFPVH
T17 sequence (Q96D53 whole entry): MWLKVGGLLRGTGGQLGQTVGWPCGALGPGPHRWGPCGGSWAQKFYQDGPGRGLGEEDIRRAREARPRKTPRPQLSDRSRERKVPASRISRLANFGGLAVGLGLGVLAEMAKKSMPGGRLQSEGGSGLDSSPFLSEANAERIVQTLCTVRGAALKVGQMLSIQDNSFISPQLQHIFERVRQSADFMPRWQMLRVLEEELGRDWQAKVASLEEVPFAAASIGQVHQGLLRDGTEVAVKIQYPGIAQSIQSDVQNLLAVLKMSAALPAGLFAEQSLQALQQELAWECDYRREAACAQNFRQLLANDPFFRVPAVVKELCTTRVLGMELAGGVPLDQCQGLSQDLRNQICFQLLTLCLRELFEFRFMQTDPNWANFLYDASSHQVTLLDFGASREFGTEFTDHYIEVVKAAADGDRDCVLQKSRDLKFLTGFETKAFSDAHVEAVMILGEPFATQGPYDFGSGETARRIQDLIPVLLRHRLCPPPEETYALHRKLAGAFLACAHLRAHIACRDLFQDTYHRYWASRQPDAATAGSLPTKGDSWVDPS
T16 sequence (P29317 24-976): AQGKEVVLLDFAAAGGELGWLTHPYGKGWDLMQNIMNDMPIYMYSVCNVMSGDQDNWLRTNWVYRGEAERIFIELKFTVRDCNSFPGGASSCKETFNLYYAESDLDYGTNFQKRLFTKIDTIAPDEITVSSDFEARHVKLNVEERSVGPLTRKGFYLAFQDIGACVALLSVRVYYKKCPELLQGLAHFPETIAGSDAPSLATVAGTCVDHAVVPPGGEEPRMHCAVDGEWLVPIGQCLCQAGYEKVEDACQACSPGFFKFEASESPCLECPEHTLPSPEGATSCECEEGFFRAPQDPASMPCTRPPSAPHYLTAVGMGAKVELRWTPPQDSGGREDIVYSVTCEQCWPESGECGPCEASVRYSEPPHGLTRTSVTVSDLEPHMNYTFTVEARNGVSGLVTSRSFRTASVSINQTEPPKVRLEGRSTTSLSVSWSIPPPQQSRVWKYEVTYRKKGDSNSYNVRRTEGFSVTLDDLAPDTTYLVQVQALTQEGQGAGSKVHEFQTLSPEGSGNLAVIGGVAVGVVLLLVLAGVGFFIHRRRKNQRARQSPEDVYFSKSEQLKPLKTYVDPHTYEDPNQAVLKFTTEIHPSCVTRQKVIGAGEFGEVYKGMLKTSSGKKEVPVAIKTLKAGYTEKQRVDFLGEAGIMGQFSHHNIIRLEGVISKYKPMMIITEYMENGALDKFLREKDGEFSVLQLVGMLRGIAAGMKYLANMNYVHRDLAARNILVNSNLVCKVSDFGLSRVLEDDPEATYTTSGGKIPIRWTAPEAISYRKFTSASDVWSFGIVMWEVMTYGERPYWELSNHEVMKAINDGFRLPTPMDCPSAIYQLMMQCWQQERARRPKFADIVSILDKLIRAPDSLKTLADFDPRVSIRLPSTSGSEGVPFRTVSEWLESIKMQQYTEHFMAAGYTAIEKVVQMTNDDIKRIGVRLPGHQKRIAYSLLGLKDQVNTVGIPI
T24 sequence (P07947 whole entry): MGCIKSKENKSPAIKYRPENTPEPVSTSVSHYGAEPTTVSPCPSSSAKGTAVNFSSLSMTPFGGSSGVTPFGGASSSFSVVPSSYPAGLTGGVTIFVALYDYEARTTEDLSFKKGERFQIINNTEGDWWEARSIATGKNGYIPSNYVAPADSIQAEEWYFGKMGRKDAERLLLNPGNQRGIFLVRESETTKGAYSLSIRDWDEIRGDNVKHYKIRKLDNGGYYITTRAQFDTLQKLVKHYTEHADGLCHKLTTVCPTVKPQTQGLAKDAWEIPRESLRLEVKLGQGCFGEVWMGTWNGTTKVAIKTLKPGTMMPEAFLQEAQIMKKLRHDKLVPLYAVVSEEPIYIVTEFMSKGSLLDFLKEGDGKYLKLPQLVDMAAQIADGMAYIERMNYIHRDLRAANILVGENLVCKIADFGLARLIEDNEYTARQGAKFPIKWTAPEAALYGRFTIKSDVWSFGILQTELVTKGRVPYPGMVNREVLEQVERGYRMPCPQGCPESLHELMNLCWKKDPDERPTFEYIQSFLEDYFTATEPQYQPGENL
T11 sequence (O14965 whole entry): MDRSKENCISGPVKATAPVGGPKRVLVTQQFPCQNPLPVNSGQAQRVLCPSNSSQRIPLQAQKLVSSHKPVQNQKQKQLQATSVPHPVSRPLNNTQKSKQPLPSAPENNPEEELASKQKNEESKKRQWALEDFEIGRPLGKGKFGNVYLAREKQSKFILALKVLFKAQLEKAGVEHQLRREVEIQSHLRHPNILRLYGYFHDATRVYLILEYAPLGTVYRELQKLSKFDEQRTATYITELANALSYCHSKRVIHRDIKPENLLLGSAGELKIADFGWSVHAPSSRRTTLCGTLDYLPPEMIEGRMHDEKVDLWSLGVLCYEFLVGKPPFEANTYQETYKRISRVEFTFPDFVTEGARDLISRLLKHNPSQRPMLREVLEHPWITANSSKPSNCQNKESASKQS
T8 sequence (P04629 33-796): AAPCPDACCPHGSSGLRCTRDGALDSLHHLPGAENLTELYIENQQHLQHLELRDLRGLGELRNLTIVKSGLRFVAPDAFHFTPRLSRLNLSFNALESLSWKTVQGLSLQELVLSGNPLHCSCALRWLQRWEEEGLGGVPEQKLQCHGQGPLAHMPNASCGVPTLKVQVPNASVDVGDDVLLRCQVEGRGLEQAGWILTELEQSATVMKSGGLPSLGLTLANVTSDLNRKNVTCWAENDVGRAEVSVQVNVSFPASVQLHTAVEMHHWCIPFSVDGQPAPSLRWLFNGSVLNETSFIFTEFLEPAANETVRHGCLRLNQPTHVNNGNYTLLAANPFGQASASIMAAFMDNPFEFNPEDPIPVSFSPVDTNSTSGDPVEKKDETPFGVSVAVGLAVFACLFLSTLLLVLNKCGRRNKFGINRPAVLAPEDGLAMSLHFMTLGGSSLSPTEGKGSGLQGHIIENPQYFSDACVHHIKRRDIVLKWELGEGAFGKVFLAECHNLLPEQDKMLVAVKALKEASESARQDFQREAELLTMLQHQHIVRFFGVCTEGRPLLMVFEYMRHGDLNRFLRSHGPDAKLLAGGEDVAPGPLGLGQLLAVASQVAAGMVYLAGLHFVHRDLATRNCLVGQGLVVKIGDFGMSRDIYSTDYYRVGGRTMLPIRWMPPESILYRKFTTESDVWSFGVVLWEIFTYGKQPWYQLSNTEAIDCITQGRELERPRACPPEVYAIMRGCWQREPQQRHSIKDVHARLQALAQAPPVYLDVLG

In the case of `CC(C)C(=O)N1CCN(c2ccc(NC(=O)c3cc4ccccc4o3)cc2Cl)CC1` [Compound 21], the “Percent Control” value [1] is reported as 88%, the “Percent Control” value [2] is reported as 81% and the “Percent Control” value [3] is reported as 85%. The “Percent Control” value [4] was 100%, the “Percent Control” value [5] was 100% and the “Percent Control” value [6] was 81%. The “Percent Control” value [7] was 100%, the “Percent Control” value [8] was 14% and the “Percent Control” value [9] was 100%. For the same molecule, the “Percent Control” value [10] was 77%, the “Percent Control” value [11] was 89% and the “Percent Control” value [12] was 97%. For the same molecule, the “Percent Control” value [13] was 88%, the “binding to BRAF” value ([14]; 10 µM of 21) was “failed to bind” and the “Percent Control” value ([14]; kinase BRAF (Entrez BRAF)) was 93%. The “Percent Control” value [15] was 89%, the “Percent Control” value [16] was 40% and the “Percent Control” value [17] was 77%. The “Percent Control” value [18] was 67%, the “Percent Control” value [19] was 88% and the “Percent Control” value [20] was 98%. For the same molecule, the “Percent Control” value [21] was 94%, the “Percent Control” value [22] was 72% and the “binding to AAK1” value ([23]; 10 µM of 21) was “failed to bind”. The “Percent Control” value ([23]; kinase AAK1 (Entrez AAK1)) was 100%, the “Percent Control” value [24] was 89% and the “Percent Control” value [25] was 100%. The “Percent Control” value [26] was 87%.
